For data set [1], the target named is Kappa-type opioid receptor (Mus musculus, UniProt P33534). The data set can be described thus: Displacement of [3H]diprenorphine from mouse KOR expressed in CHO cells assessed as dissociation constant incubated for […] by radioligand binding assay. In kind it is cell-based. (In a radioligand displacement assay an active substance lowers the binding of a labelled ligand.)

Data set [2] can be described thus: Toxicity in Swiss Webster mouse assessed as effect on average speed at 0.05 to 0.5 mg/kg,sc measured after 30 mins. In kind it is organism-based. Particulars: in vivo, 0.5 h, dose 0.05-0.5 mg/kg.
Data set [3] is described as follows: Drug uptake in Swiss Webster mouse plasma at 0.1 mg/kg, sc measured after 5 mins by LC-MS/MS analysis. In kind it is ADME, organism-based. Particulars: in vivo.
In data set [4] the test system is Mus musculus. The data set is described as follows: Antinociception activity in male Swiss Webster mouse model assessed as increase in maximum possible effect at 0.1 mg/kg, sc measured after 30 to 360 mins post injection by warm-water tail immersion assay. The data set is classed as functional, organism-based. The following applies: time 30-360 min.
Data set [5] can be described thus: in vivo. The following applies: Swiss Webster, mouse, blood and plasma, sc, 0.1 mg/kg.
Description: Ratio of drug level in Swiss Webster mouse blood to plasma at 0.1 mg/kg, sc measured after 30 mins by LC-MS/MS analysis
A short description of data set [6]: in vivo. Particulars: Swiss Webster, mouse, blood and plasma, sc, 0.1 mg/kg. This is another data set of the same source.
Description: Ratio of drug level in Swiss Webster mouse blood to plasma at 0.1 mg/kg, sc measured after 60 mins by LC-MS/MS analysis
Data set [7] deals with Mus musculus. The data set is described as follows: Antinociception activity in male Swiss Webster mouse model assessed as increase in maximum possible effect at 10 mg/kg, sc measured after 20 mins by warm-water tail immersion assay relative to control. The data set is classed as functional.
The nature of data set [8]: in vivo. The following applies: Swiss Webster, mouse, blood and plasma, sc, 0.1 mg/kg. This is another data set of the same source.
Description: Ratio of drug level in Swiss Webster mouse blood to plasma at 0.1 mg/kg, sc measured after 10 mins by LC-MS/MS analysis
The test system of data set [9] is Mus musculus. The data set is described as follows: Antinociception activity in male Swiss Webster mouse model assessed as increase in maximum possible effect at 0.05 mg/kg, sc measured after 6 hrs post injection by warm-water tail immersion assay. In kind it is functional, organism-based.
Data set [10] concerns Mus musculus. The data set can be described thus: Antinociception activity in male Swiss Webster mouse model assessed as effect on tail withdrawal latency at 0.05 to 0.1 mg/kg, sc pre incubated with nor-BNI/naltrindole for 24 hrs followed by compound addition and measured after 20 mins by warm water tail immersion assay. The data set is classed as functional, organism-based. The following applies: dose 0.05-0.1 mg/kg.

The nature of data set [11]: Toxicity in Swiss Webster mouse assessed as effect on locomotion at 0.05 to 0.5 mg/kg,sc measured after 30 mins. In kind it is organism-based. The following applies: in vivo, 0.5 h, dose 0.05-0.5 mg/kg.
Data set [12] is described as follows: Toxicity in Swiss Webster mouse assessed as reduction in sedative effect at 0.05 to 0.5 mg/kg,sc. The data set is classed as organism-based. The following applies: in vivo, dose 0.05-0.5 mg/kg.
Data set [13] deals with Mus musculus. The data set is described as follows: Antinociception activity in male Swiss Webster mouse model assessed as increase in maximum possible effect at 0.05 mg/kg, sc measured until 3 hrs post injection by warm-water tail immersion assay. In kind it is functional, organism-based.
The subject of data set [14] is Mus musculus. The data set is described as follows: Antinociception activity in male Swiss Webster mouse model assessed as effect on tail withdrawal latency at 0.05 to 0.1 mg/kg, sc pre incubated with nor-BNI for 24 hrs followed by compound addition and measured after 20 mins by warm water tail immersion assay. In kind it is functional, organism-based. Particulars: dose 0.05-0.1 mg/kg.

Data set [15] has as its system Mus musculus. The data set can be described thus: Antinociception activity in male Swiss Webster mouse model assessed as effect on tail withdrawal latency at 0.05 to 0.1 mg/kg, sc pre incubated with naltrindole for 30 mins followed by compound addition and measured after 20 mins by warm water tail immersion assay. The data set is classed as functional, organism-based. The following applies: dose 0.05-0.1 mg/kg.

A short description of data set [16]: Abuse liability in male Sprague-Dawley rat assessed as reduction in reinforcement at 0.32 to 10 microg/kg administered per infusion. In kind it is toxicity. The following applies: in vivo, iv, dose 0.32-10 µg/kg.
In data set [17] the target is Mu-type opioid receptor (Mus musculus, UniProt P42866). The data set can be described thus: Displacement of [3H]Naloxone from mouse MOR expressed in CHO cells assessed as dissociation constant incubated for […] by radioligand binding assay. In kind it is cell-based.
In data set [18] the target is T1, Delta-type opioid receptor (Homo sapiens, UniProt P41143). The data set is described as follows: Agonist activity at human DOR expressed in CHO cells increase in [35S]GTPgammaS binding measured after […] by scintillation counter analysis relative to SNC80. The data set is classed as functional, cell-based. Particulars: filed as agonist. On the technique in general: Binding of GTPγS marks nucleotide exchange on a G protein.

The target of data set [19] is T1, Delta-type opioid receptor. The data set can be described thus: Displacement of [3H]diprenorphine from human DOR expressed in CHO cells assessed as dissociation constant incubated for […] by radioligand binding assay. In kind it is cell-based.
The test system of data set [20] is Mus musculus. The data set is described as follows: Antinociception activity in male Swiss Webster mouse model assessed as effect on tail withdrawal latency at 0.1 mg/kg, sc pre incubated with naltrindole/nor-BNI for 24 hrs followed by compound addition and measured after 20 mins by warm water tail immersion assay. In kind it is functional, organism-based.
In data set [21] the test system is Mus musculus. The data set can be described thus: Antinociception activity in male Swiss Webster mouse model assessed as effective dose administered as sc dose measured after 20 mins by warm-water tail immersion assay. The data set is classed as functional.
Data set [22] concerns Mus musculus. The data set is described as follows: Antinociception activity in male Swiss Webster mouse model assessed as increase in maximum possible effect at 0.1 mg/kg, sc measured after 4 to 9 hrs post injection by warm-water tail immersion assay. The data set is classed as functional, organism-based. The following applies: time 4-9 hrs.
Data set [23] can be described thus: Toxicity in Swiss Webster mouse assessed as reduction in locomotion activity administered as sc dose measured for 30 mins. In kind it is organism-based. Particulars: in vivo, 0.5 h, dose 0.1-0.5 mg/kg.
Data set [24] deals with T1, Delta-type opioid receptor. The data set can be described thus: Binding affinity to DOR (unknown origin) assessed as dissociation constant.
Data set [25] in a line: Toxicity in Swiss Webster mouse assessed as effect on average speed at 0.1 to 0.5 mg/kg,sc measured after 30 mins. In kind it is organism-based. Particulars: in vivo, 0.5 h, dose 0.1-0.5 mg/kg.
Data set [26] addresses T1, Delta-type opioid receptor.
A short description of data set [27]: Toxicity in Swiss Webster mouse assessed as effect on locomotion at 0.1 to 0.5 mg/kg,sc measured after 30 mins. In kind it is organism-based. Particulars: in vivo, 0.5 h, dose 0.1-0.5 mg/kg.
The subject of data set [28] is Mus musculus. The data set is described as follows: Antinociception activity in male Swiss Webster mouse model assessed as effect on tail withdrawal latency at 0.1 mg/kg, sc pre incubated with naltrindole for 30 mins followed by compound addition and measured after 20 mins by warm water tail immersion assay. The data set is classed as functional, organism-based.
For data set [29], the system named is Mus musculus. The data set is described as follows: Antinociception activity in male Swiss Webster mouse model assessed as effect on tail withdrawal latency at 0.1 mg/kg, sc pre incubated with nor-BNI for 24 hrs followed by compound addition and measured after 20 mins by warm water tail immersion assay. The data set is classed as functional, organism-based.

Data set [30] relates to Mus musculus. The data set is described as follows: Antinociception activity in male Swiss Webster mouse model assessed as increase in maximum possible effect at 0.1 mg/kg, sc measured after 30 to 60 mins post injection by warm-water tail immersion assay. In kind it is functional, organism-based. Particulars: time 30-60 min.
A short description of data set [31]: Abuse liability in male Sprague-Dawley rat assessed as reduction in reinforcement at 0.1 to 10 microg/kg administered per infusion. The data set is classed as toxicity. The following applies: in vivo, iv, dose 0.1-10 µg/kg.
Data set [32] deals with Mus musculus. The data set is described as follows: Antinociception activity in male Swiss Webster mouse model assessed as increase in maximum possible effect at 0.05 mg/kg, sc measured after 30 to 60 mins post injection by warm-water tail immersion assay. Particulars: time 30-60 min. In kind it is functional, organism-based.
Data set [33] relates to Mus musculus. The data set is described as follows: Antinociception activity in male Swiss Webster mouse model assessed as increase in maximum possible effect at 0.05 mg/kg, sc measured after 3 to 5 hrs post injection by warm-water tail immersion assay. In kind it is functional, organism-based. Particulars: time 3-5 hrs.
For data set [34], the system named is Mus musculus. The data set can be described thus: Antinociception activity in male Swiss Webster mouse model assessed as increase in maximum possible effect at 0.1 mg/kg, sc measured after 30 to 180 mins post injection by warm-water tail immersion assay. The data set is classed as functional, organism-based. Particulars: time 30-180 min.
Data set [35] in a line: Toxicity in Swiss Webster mouse assessed as reduction in sedative effect at 0.1 to 0.5 mg/kg,sc. The following applies: in vivo, dose 0.1-0.5 mg/kg. The data set is classed as organism-based.

The values that follow come from ChEMBL document CHEMBL5506068 (J Med Chem, 2024).

The structures appear in SMILES notation. Activity calls are given as the source filed them. No cut-off for these calls is given here.

T1 sequence (P41143 whole entry): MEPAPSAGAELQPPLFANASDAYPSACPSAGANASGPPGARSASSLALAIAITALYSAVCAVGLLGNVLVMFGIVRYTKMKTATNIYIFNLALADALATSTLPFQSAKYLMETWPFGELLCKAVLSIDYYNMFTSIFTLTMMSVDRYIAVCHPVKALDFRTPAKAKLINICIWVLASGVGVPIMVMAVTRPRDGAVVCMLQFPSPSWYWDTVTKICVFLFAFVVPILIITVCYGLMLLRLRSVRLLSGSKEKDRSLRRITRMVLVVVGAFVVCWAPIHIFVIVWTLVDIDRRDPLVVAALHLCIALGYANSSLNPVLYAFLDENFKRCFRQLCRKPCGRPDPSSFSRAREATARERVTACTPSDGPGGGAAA
Chain of Kappa-type opioid receptor (P33534 whole entry): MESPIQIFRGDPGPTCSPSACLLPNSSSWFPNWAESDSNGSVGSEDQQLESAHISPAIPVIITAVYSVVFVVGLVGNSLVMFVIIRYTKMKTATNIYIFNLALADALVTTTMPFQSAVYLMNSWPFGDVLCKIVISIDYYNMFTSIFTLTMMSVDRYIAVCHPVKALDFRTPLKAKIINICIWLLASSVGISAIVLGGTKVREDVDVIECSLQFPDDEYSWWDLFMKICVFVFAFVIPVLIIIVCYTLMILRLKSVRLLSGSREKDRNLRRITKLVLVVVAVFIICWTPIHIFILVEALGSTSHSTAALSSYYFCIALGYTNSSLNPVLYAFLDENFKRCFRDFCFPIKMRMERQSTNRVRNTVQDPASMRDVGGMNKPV
Chain of Mu-type opioid receptor (P42866 whole entry): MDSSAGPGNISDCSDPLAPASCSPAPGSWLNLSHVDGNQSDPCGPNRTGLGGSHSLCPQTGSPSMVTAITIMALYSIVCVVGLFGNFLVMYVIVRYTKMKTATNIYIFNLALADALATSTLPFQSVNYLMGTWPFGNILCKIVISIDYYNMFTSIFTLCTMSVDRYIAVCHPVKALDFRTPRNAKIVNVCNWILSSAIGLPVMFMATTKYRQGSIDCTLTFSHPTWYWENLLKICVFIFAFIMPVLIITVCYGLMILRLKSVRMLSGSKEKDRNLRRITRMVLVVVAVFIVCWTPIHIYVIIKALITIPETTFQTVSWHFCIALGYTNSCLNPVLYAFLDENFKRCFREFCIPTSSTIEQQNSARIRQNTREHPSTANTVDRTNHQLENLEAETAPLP

With `CN(C(=O)/C=C/c1ccco1)[C@@H]1CC[C@@]2(O)[C@H]3Cc4ccc(O)c5c4[C@@]2(CCN3CC2CC2)[C@H]1O5.Cl`, the Kd in [1] came out at 0.22 nM; in [17], 0.78 nM; in data set [19], 7.93 nM. The Activity entry in data set [2] is given as “Toxic”; in [11], “Toxic”; in [12], “Toxic”; in [16], “Non-Toxic”. For the same compound, in data set [3], the Drug uptake result is on record as “Active”. The outcome in data set [4] and in [13] was Active. Besides, the blood plasma ratio at 0.5 h in data set [5] came out at 0.645. The blood plasma ratio at 1 h in data set [6] is 1.45. Moreover, in [7], the MPE is reported as 100%. Further, the blood plasma ratio at 10 min in [8] is 0.762. In addition, the result in data set [9], in data set [10], in [14] and in data set [15] was inactive. The Emax in data set [18] was 96.1%.
Consider `CN(C(=O)/C=C/c1ccoc1)[C@@H]1CC[C@@]2(O)[C@H]3Cc4ccc(O)c5c4[C@@]2(CCN3CC2CC2)[C@H]1O5.Cl` [NALFURAFINE HYDROCHLORIDE], for which the result in data set [20], in [22], in data set [28] and in data set [29] was inactive. In addition, the ED50 in data set [21] was 0.046 mg/kg. Besides, the Activity entry in data set [23] is “Dose-Dependent Effect”; in data set [25] it was “Toxic”; in data set [27] it was “Toxic”; in data set [31], “Non-Toxic”. Also, the MPE in [7] was 80%. The Kd in [24] was 116 nM. In data set [26], a half-maximal response (EC50) required 141 nM. Besides, the result in data set [30] was Active.
As for `CN1CC[C@]23c4c5ccc(O)c4O[C@H]2[C@@H](O)C=C[C@H]3[C@H]1C5`, the result in data set [32] was Active. Moreover, in data set [33], the result was inactive.
Take `CN(C(=O)/C=C/c1ccco1)[C@H]1CC[C@@]2(O)[C@H]3Cc4ccc(O)c5c4[C@@]2(CCN3CC2CC2)[C@H]1O5.Cl`: in data set [34], the result was Active. In addition, the Kd in data set [1] amounted to 0.14 nM; in data set [17], 0.2 nM; in data set [19], 0.93 nM. Moreover, the result in [20], in data set [28] and in data set [29] was inactive. The Drug uptake entry in [3] is reported as “Active”. Besides, the blood plasma ratio at 0.5 h in data set [5] amounted to 0.633. The blood plasma ratio at 1 h in [6] is 0.938. The MPE in data set [7] came to 80%. The Activity entry is listed as “Toxic” in data set [25], “Toxic” in data set [27], “Toxic” in [35] and “Non-Toxic” in [16]. The compound further gave an Emax in data set [18] of 83.2%.

By Kd is commonly meant the concentration at which binding is half-saturated. Usually Emax stands for the greatest response seen or fitted, relative to the assay's reference. By ED50 is commonly meant the midpoint of the dose-response relation. The EC50 is the midpoint of the concentration-response curve.
